Patent US4230850A, “3-Substituted-4-aminoalkoxy-5,6-condensed ring-2-pyranones” (LIPHA, Lyonnaise Industrielle Pharmaceutique, priority 1976, dated 1980)

Key:
[1] = tested on: intraventricular coronary artery; experiment: rate of flow of the intraventricular coronary artery, electromagnetic flow meter, anaesthetised dog; format: in vivo; details: intravenous, Dipyridamol = 100
Method: The rate of flow of the intraventricular coronary artery was measured with an electromagnetic flow meter on the anaesthetised dog.
The different test compounds, administered intravenously, have caused considerable increases in the rate of flow, as reported in Table I below (the standard used for comparison being 2,6-di-[di-(2-hydroxyethyl)amino]-4,8-dipiperidinopyrimido-[5,4-d]-pyrimidine, which has the B.P.C. approved name of "Dipyridamole").

femoral artery = femoral artery rate of flow, electromagnetic flow meter, anaesthetised dog; format: in vivo; details: dog anaesthetised with Pentobarbital, papaverine = 1
From the text: The coefficients given in Table IV are expressed relatively to papaverine, which is given the coefficient 1, for the femoral dilation which it causes under similar conditions.

[2] = tested on: mice placed in a confined atmosphere; experiment: protection against anoxia: survival time of mice placed in a confined atmosphere; format: in vivo, mouse; details: oral
From the text: As well as the vasodilatory activity, a strong protective action against the effects of anoxia has been found for the compounds of the invention. By way of example, Table VI indicates as a percentage the increase in the survival time caused by oral administration of certain compounds to mice placed in a confined atmosphere.

vertebral rate of flow = vertebral rate of flow in the anaesthetised dog; format: in vivo; details: papaverine = 1
Method: Likewise, the vasodilation produced by the compounds of the invention is measured by means of the vertebral rate of flow in the anaesthetised dog.

[3] = tested on: rats made hypertensive by the Goldblatt technique; experiment: decrease in hypertension in rats made hypertensive by the Goldblatt technique; format: in vivo, rat; details: oral, (HS) or (S) given after value, not defined
Method: Anti-hypertensive (hypotensive) activity has been found with the compounds of the invention. With rats made hypertensive by the Goldblatt technique (M. GOLDBLATT, J. LUNCH, R. F. MANZAL and W. W. SUMMERVILLE, J. of Exper. Med. 1934, 59, 347-379), decreases in hypertension were recorded after oral administration of the test compound. By way of example, Table III gives the decreases obtained with some of the compounds.

[4] = tested on: citric acid aerosol cough; experiment: citric acid aerosol test on the guinea pig (anti-tussive); format: in vivo; details: administered in equitoxic dose per os
From the text: The compounds of the invention were compared with codeine.

[5] = tested on: phosphodiesterase of cyclic AMP; experiment: inhibition of the phosphodiesterase of cyclic AMP in vitro; format: biochemical; set-up: unit not given beside the values; details: measured in vitro; unit not given
From the text: The compounds of the invention are capable of inhibiting the phosphodiesterase of cyclic AMP (adenosine monophosphate).
Table II gives the inhibition indices (ID50), measured in vitro, for some of the compounds of the invention.

SMILES: Cc1ccc2oc(=O)c(-c3ccccc3)c(OCCCN3CCOCC3)c2c1
- Coefficient related to Dipyridamol [1]: 100

SMILES: O=c1oc2c(c(OCCN3CCOCC3)c1-c1ccccc1)CCCC2 [drawing 27]
- Coefficient/Papaverine (femoral dilation) (femoral artery): 12

SMILES: Cc1c(OCCN2CCOCC2)c2ccccc2oc1=O [Example 9, 3-Methyl-4-(2'-morpholinoethoxy)-coumarin]
- Average % increase in survival time [2]: +30%

SMILES: O=c1oc2c(O)cccc2c(OCCN2CCOCC2)c1-c1ccccc1 [Example 35, 8-Hydroxy-4-(2'-morpholinoethoxy)-3-phenyl-coumarin]
- Coefficient/Papaverine (vertebral rate of flow) (vertebral rate of flow): 10
- Decrease in hypertension in mm.Hg., 3 to 5 hours after administration [3]: -44 mm.Hg.
- Coefficient/Papaverine (femoral dilation) (femoral artery): 8

SMILES: COc1ccc2c3c1O[C@H]1[C@@H](O)C=C[C@H]4[C@@H](C2)N(C)CC[C@@]341 [Codeine, reference compound]
- % inhibition on average of number of coughs [4]: 55%

SMILES: O=c1oc2ccccc2c(OCCN2CCOCC2)c1-c1ccc(Br)cc1 [Example 7, 3-(4'-Bromophenyl)-4-(2"-morpholinoethoxy)-coumarin]
- Average % increase in survival time [2]: +50%

SMILES: O=c1oc2c(c(OCCN3CCOCC3)c1-c1ccccc1)CCc1ccccc1-2 [Example 44, 4-(2'-Morpholinoethoxy)-3-phenyl-5,6-dihydro-[h]-benzocoumarin]
- % inhibition on average of number of coughs [4]: 48%

SMILES: CC(COc1c2c(oc(=O)c1-c1ccccc1)CCCCCC2)CN1CCOCC1 (stereo not drawn) [Example 51, 4-(3'-Morpholino-2'-methylpropoxy)-3-phenyl[1-2-b]-cyclooctano-(2H)-pyran-2-one]
- % inhibition on average of number of coughs [4]: 60%

SMILES: O=c1oc2c(c(OCCN3CCOCC3)c1-c1ccccc1)CCCC2 [Example 14, 4-(2'-Morpholinoethoxy)-3-phenyl-5,6,7,8-tetrahydro-coumarin]
- Average % increase in survival time [2]: +50%

SMILES: O=c1oc2c(c(OCCCN3CCOCC3)c1-c1ccccc1)CCCC2 [Example 47, 4-(3'-Morpholinopropoxy)-3-phenyl-5,6,7,8-tetrahydrocoumarin]
- ID50 (inhibition indices) [5]: 200

SMILES: O=c1oc2c(c(OCCN3CCOCC3)c1-c1ccccc1)CCCC2 [drawing 49]
- % inhibition on average of number of coughs [4]: 85%

SMILES: O=c1oc2ccccc2c(OCCN2CCOCC2)c1-c1ccc(F)cc1 [Example 11, 3-(4'-Fluorophenyl)-4-(2"-morpholinoethoxy)-coumarin]
- Average % increase in survival time [2]: +45%

SMILES: O=c1oc2c(c(OCCN3CCOCC3)c1-c1ccccc1)CCCC2 [drawing 39]
- Coefficient/Papaverine (vertebral rate of flow) (vertebral rate of flow): 5.5

SMILES: CCCCc1c(OCCN2CCOCC2)c2c(OCCN3CCOCC3)cc(OCCN3CCOCC3)cc2oc1=O [Example 5, 3-Butyl-4,5,7-tri(2'-morpholinoethoxy)-coumarin]
- Coefficient/Papaverine (vertebral rate of flow) (vertebral rate of flow): 2

SMILES: CC(COc1c2c(oc(=O)c1-c1ccccc1)CCCC2)CN1CCOCC1 (stereo not drawn) [Example 46, 4-(3'-Morpholino-2'-methylpropoxy)-3-phenyl-5,6,7,8-tetrahydrocoumarin]
- Average % increase in survival time [2]: +40%
- ID50 (inhibition indices) [5]: 600

SMILES: COc1ccc(Cc2nccc3cc(OC)c(OC)cc23)cc1OC [Papaverine, reference compound]
- Coefficient/Papaverine (vertebral rate of flow) (vertebral rate of flow): 1
- Coefficient/Papaverine (femoral dilation) (femoral artery): 1

SMILES: Cc1ccc2oc(=O)c(-c3ccccc3)c(OCCN3CCOCC3)c2c1 [Example 12, 6-Methyl-4-(2'-morpholinoethoxy)-3-phenyl-coumarin]
- Coefficient related to Dipyridamol [1]: 150

SMILES: CN1CCN(CCCOc2c(-c3ccccc3)c(=O)oc3ccccc23)CC1 [Example 27, 4-[3-(4"-Methyl-1"-piperazinyl)-propoxy]-3-phenyl-coumarin]
- Coefficient/Papaverine (vertebral rate of flow) (vertebral rate of flow): 3

SMILES: O=c1oc2c(c(OCCN3CCOCC3)c1-c1ccccc1)-c1ccccc1C2c1ccccc1 (stereo not drawn) [Example 45, 4-(2'-Morpholinoethoxy)-3,9-diphenyl-[2-1-b]-indeno-[2H]-pyran-2-one]
- Decrease in hypertension in mm.Hg., 3 to 5 hours after administration [3]: -49 mm.Hg.
- Coefficient/Papaverine (femoral dilation) (femoral artery): 60

SMILES: O=c1oc2ccccc2c(OCCN2CCOCC2)c1-c1ccccc1 [Example 2, 4-(2'-Morpholinoethoxy)-3-phenyl-coumarin]
- Coefficient/Papaverine (vertebral rate of flow) (vertebral rate of flow): 2
- Coefficient related to Dipyridamol [1]: 150
- Average % increase in survival time [2]: +41%
- Decrease in hypertension in mm.Hg., 3 to 5 hours after administration [3]: -34 mm.Hg.

SMILES: O=c1oc2ccccc2c(OCCN2CCCCC2)c1-c1ccccc1 [Example 3, 4-(2'-Piperidinoethoxy)-3-phenyl-coumarin]
- ID50 (inhibition indices) [5]: 150

SMILES: OCCN(CCO)c1nc(N2CCCCC2)c2nc(N(CCO)CCO)nc(N3CCCCC3)c2n1 [Dipyridamol, 2,6-di-[di-(2-hydroxyethyl)amino]-4,8-dipiperidinopyrimido-[5,4-d]-pyrimidine, reference compound]
- Coefficient related to Dipyridamol [1]: 100

SMILES: CN(C)CCCOc1c(-c2ccccc2)c(=O)oc2ccccc12 [Example 4, 4-(3'-Dimethylaminopropoxy)-3-phenyl-coumarin]
- Coefficient/Papaverine (vertebral rate of flow) (vertebral rate of flow): 6
- Coefficient/Papaverine (femoral dilation) (femoral artery): 60
- ID50 (inhibition indices) [5]: 150

SMILES: O=c1oc2cccc(O)c2c(OCCN2CCOCC2)c1-c1ccccc1 [Example 30, 4-(2'-Morpholinoethoxy)-5-hydroxy-3-phenyl-coumarin]
- Average % increase in survival time [2]: +65%
- % inhibition on average of number of coughs [4]: 47%

SMILES: COc1cccc2c(OCCN3CCOCC3)c(-c3ccccc3)c(=O)oc12 [Example 21, 8-Methoxy-4-(2'-morpholinoethoxy)-3-phenyl-coumarin]
- Coefficient/Papaverine (vertebral rate of flow) (vertebral rate of flow): 5
- Coefficient/Papaverine (femoral dilation) (femoral artery): 13

SMILES: O=c1oc2cccc(OCCN3CCOCC3)c2c(OCCN2CCOCC2)c1-c1ccccc1 [Example 23, Bis-4,5-(2'-morpholinoethoxy)-3-phenyl-coumarin]
- Coefficient/Papaverine (vertebral rate of flow) (vertebral rate of flow): 4.5
- Coefficient related to Dipyridamol [1]: 300
- Coefficient/Papaverine (femoral dilation) (femoral artery): 6

SMILES: O=c1oc2ccccc2c(OCC(O)CN2CCCCC2)c1-c1ccccc1 (stereo not drawn) [Example 37, 4-(3'-Piperidino-2'-hydroxypropoxy)-3-phenyl-coumarin]
- Coefficient/Papaverine (vertebral rate of flow) (vertebral rate of flow): 9
- Coefficient/Papaverine (femoral dilation) (femoral artery): 12

SMILES: CC(COc1c(-c2ccccc2)c(=O)oc2ccccc12)CN1CCOCC1 (stereo not drawn) [Example 19, 4-(3'-Morpholino-2'-methylpropoxy)-3-phenyl-coumarin]
- Coefficient/Papaverine (vertebral rate of flow) (vertebral rate of flow): 3
- Average % increase in survival time [2]: +46%
- Decrease in hypertension in mm.Hg., 3 to 5 hours after administration [3]: -18 mm.Hg.
- ID50 (inhibition indices) [5]: 600

SMILES: COc1ccc2c(OCCN3CCOCC3)c(-c3ccccc3)c(=O)oc2c1 [Example 20, 7-Methoxy-4-(2'-morpholinoethoxy)-3-phenyl-coumarin]
- Coefficient/Papaverine (femoral dilation) (femoral artery): 12

SMILES: O=c1oc2ccccc2c(OCCCN2CCOCC2)c1-c1ccccc1 [Example 16, 4-(3'-Morpholinopropoxy)-3-phenyl-coumarin]
- Coefficient related to Dipyridamol [1]: 250
